Reference: patent US20140303092A1 (CHIMERIX, INC., priority 2011, published 2014)

Assays:
[1] = Study HDP-CDV-201: GVHD reported as AE, weekly stage and grade, logistic regression versus dose; design: species or system human (HSCT recipients); conditions: human, in vivo
Protocol: Because of the increased frequency of reports of acute GVHD in the BIW Cohorts of Study HDP-CDV-201, an in-depth analysis of reported GVHD was conducted. This analysis includes data from the following sources: Adverse events as reported in the eCRF, including GVHD and GI events; Weekly GVHD assessments (by stage, organ, and grade) as reported by the investigators on the GVHD module of the eCRF. […]
For all subjects, the sites were instructed to record the presence or absence of GVHD, and stage and grade of GVHD, if present, at each visit on a separate eCRF page. […] Stage and grade of GVHD were evaluated per the NIH consensus guidelines (Przepiorka D, et al. Consensus conference on acute GVHD grading. Bone Marrow Transplant. 1995; 15(6): 825-828), which focus on the intensity of symptoms or laboratory abnormalities associated with GVHD (for example, the staging of GVHD of the intestine is based on the volume of diarrhea). […]

[2] = in vivo
[3] = human, in vivo
Text: ESRD patients not on dialysis have no ability to eliminate the metabolite CDV. As such, specific labeling for ESRD patients not currently on dialysis may not be sought. Furthermore, such subjects are/may be excluded from future studies with HDP-CDV.

VZV = experiment: In vitro antiviral activity in cell culture, VZV; assay type: cell-based, varicella-zoster virus; conditions: Human alphaherpesvirus 3
HHV-6(B) = experiment: In vitro antiviral activity in cell culture, HHV-6(B); assay type: cell-based, human herpesvirus 6; conditions: Human betaherpesvirus 6, B-cell
clinical = conditions: human, in vivo
Protocol: The pharmacokinetics of HDP-CDV (oral solution) were investigated in a dose-escalation study in healthy volunteers (Study HDP-CDV-102) in which single doses of up to 2 mg/kg and multiple doses (3 doses, each separated by 6 days) of up to 1 mg/kg were administered.

[4] = Study HDP-CDV-106: safety and PK in subjects with impaired hepatic function; assay type: in vivo, human
Protocol: Subjects with moderate hepatic impairment and matched healthy control subjects with normal hepatic function were enrolled and dosed first in Cohort 1, each receiving a single 200 mg dose of HDP-CDV under fasting conditions. The safety, tolerability and PK data from these subjects was reviewed prior to initiating dosing in subjects with severe hepatic impairment in Cohort 2. The study was conducted at four centers in the USA. Up to approximately 24 male and female subjects were planned to be enrolled in this study, including 8 subjects with moderate hepatic impairment and 8 matched healthy control subjects in Cohort 1 and 8 subjects with severe hepatic impairment in Cohort 2. The severity of hepatic impairment was assessed according to the Child-Pugh-Turcotte (CPT) score. Assessments are as follows: CPT Class B (moderate impairment) has a score of 7 to 9 points; and Class C (severe impairment) has a score of >9 points. For the purposes of this study, Cohort 2 subjects were required to have a CPT score of 10 or 11.

P-gp = P-gp (Homo sapiens, UniProt P08183); experiment: P-gp inhibition in vitro; assay type: in vitro ADME; conditions: in vitro results
Text: Due to this potential interaction, digoxin is excluded medication in Study HDP-CDV-301 (see Example 5).

[5] = tested on: human liver microsomes and recombinant human CYP enzymes; experiment: Study HDP-CDV-NCA-049: in vitro CYP reaction phenotyping, liver microsomes; assay type: in vitro ADME; conditions: liver microsomes from multiple species, previous studies
Text: This study is expected to definitively quantify the major human metabolites arising from specific CYP enzymes and inform the need for a clinical DDI study investigating the effect of inhibition of these CYP enzymes on the PK of HDP-CDV.

[6] = mouse, in vivo
AdV = experiment: In vitro antiviral activity in cell culture, AdV; assay type: cell-based; conditions: unidentified adenovirus
CMV = experiment: In vitro antiviral activity in cell culture, CMV; assay type: cell-based, cytomegalovirus; conditions: dsDNA viruses including CMV and AdV
CYP3A = assay type: in vitro ADME

Chain of P-gp (P08183 whole entry): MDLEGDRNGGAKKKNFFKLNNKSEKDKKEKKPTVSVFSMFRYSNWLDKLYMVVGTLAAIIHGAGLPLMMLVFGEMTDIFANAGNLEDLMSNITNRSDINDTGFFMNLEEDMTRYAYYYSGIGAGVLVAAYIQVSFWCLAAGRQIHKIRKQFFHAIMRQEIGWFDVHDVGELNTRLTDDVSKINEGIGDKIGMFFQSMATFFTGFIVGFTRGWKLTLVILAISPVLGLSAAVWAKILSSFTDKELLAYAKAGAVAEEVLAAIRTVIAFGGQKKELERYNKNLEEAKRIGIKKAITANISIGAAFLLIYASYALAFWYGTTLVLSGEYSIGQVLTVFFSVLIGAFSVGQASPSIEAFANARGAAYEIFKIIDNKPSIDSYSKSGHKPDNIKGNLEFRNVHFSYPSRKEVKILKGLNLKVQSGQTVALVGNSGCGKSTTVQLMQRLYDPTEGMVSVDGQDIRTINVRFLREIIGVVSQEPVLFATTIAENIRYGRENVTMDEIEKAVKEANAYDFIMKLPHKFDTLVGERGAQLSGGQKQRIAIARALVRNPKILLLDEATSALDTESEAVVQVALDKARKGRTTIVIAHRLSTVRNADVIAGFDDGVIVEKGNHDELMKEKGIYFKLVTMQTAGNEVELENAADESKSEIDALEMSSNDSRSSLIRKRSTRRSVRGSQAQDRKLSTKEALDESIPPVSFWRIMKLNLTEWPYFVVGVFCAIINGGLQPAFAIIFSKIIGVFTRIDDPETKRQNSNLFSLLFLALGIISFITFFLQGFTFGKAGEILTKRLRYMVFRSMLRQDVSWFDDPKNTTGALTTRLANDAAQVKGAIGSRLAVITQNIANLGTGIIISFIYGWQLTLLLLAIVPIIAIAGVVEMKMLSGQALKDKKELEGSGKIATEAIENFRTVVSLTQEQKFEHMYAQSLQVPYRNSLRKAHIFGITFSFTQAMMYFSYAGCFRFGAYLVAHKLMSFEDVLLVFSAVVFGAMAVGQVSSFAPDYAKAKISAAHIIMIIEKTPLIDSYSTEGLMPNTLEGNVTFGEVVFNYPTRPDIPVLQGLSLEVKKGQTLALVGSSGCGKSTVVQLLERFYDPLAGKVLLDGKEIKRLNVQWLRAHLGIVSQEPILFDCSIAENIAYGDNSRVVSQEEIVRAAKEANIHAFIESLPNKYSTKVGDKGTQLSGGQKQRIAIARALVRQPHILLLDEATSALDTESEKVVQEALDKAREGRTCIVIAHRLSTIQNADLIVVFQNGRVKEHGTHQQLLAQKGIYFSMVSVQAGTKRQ

Compound: CCCCCCCCCCCCCCCCOCCCOP(=O)(O)COC(CO)Cn1ccc(N)nc1=O (stereo not drawn) [HDP-CDV]
- overall frequency of GVHD [1]: 44 to 59%
- Minor increases in ALT [2]: 2-5 fold
- need for dosage adjustment in renal impairment [3]: no adjustment of HDP-CDV dosage is required
- EC50 (VZV): 0.4 nM
- EC50 (HHV-6(B)): 7 nM
- Cmax and AUC versus dose (clinical): increased approximately in proportion to dose
- accumulation on Day 12 (clinical): negligible accumulation
- quantifiable in urine (clinical): not quantifiable in the urine
- half-life (clinical; 1 mg/kg): 27 h
- time of Cmax after administration (clinical; po): 2 to 3 h
- effect of hepatic impairment on percentage bound to plasma protein ([4]; human, in vivo): did not affect
- need for dose adjustment in hepatic disease ([4]; moderate or severe hepatic disease): no HDP-CDV dose adjustment is warranted
- inhibition of P-gp (P-gp): may inhibit P-gp
- in vitro turnover [5]: low in vitro turnover
- ALT increases in individual animals [6]: up to 5 fold
- EC50 (AdV): 20 nM
- higher potency in comparison to cidofovir, ganciclovir and other nucleoside analogs (CMV): 100 to 1000 fold
- inhibition of CYP3A activity in vitro (CYP3A): moderate inhibitor
